Measurements: patent US11584758B2, “RIP1K inhibitors” (Rigel Pharmaceuticals, Inc., priority 2020, dated 2023)

Experiments:
RIPK1 = RIPK1 (Homo sapiens (Human), UniProt Q13546); assay: RIPK1 ADP-Glo kinase biochemical assay; settings: statement in words
Description: In this example, compounds of the disclosure were evaluated using a biochemical assay using the ADP-Glo™ technology.
ADP-Glo™ (Promega, Madison, Wis., USA) reagents were thawed at ambient temperature. Kinase Detection Reagent was prepared by mixing kinase detection buffer with the lyophilized kinase detection substrate.
A 3 ml 2× working stock volume of Reaction Kinase Buffer was made containing a final concentration of 100 μM DTT and 4 mM MnCl2.
Components of RIPK1 enzyme (Rigel Pharmaceuticals, South San Francisco, Calif., USA) were thawed on ice. Diluted RIPK1 was prepared in 1× Kinase Reaction Buffer (diluted from 2× buffer) to 31 ng/well.
1.0 ul of diluted compound was added to a 384 well plate in duplicate. […] The final reaction volume was 5.0 μl.
The plate was quickly centrifuged and the reaction was incubated at 30° C. for 30 minutes. Adding 5 μl of ADP-Glo™ terminated the reaction. The plate was quickly centrifuged and the reaction was incubated at room temperature for 40 minutes. Kinase Detection Reagent was then added and incubated at room temperature for 30 minutes. The relative light unit (RLU) of kinase reaction was determined by luminescent (Luminescence 0.1s) using a Wallac Victor2 Luminometer (PerkinElmer, Waltham, Mass., USA).

[1] = Brain free fraction in vitro; format: in vitro ADME; settings: rodent brain in vitro
Excerpt: (§1) Certain embodiments of the invention provide for compound, compounds or compositions thereof to traverse the blood-brain barrier. […] Brain penetration may be assessed by evaluating brain/plasma ratio (B/P) as measured through in vivo pharmacokinetic studies in rodents and determining free fraction in rodent brain in vitro. […] Without being limited to theory, it is believed that compounds with higher brain/plasma partition ratios may be more pharmacologically active against neurological disorders. Other methods for assessing brain penetration are known to persons of ordinary skill in the art. See, for example, Liu, X. et al., J. Pharmacol. Exp. Therap., 325:349-56, 2008. […]. In this method, the passive membrane permeability (Papp) and the P-gp (P-glycoprotein) substrate efflux potential are determined using a MDCKII-MDR1 cell line as an in vitro model of the effective permeability of a compound through the BBB.
Brain free fraction is a predictive marker for assessing potential for potential therapeutics in the CNS. See, Read K. D.; Braggio S. Assessing brain free fraction in early drug discovery. Expert. Opin. Drug. Metab. Toxicol. 2010, 6, 337-344.
Determination of brain free fraction is known such that those of skill in the art could determine the brain free fraction for additional compounds disclosed herein. See, Srinivas, Nithya et al. “Clinical Pharmacokinetics and Pharmacodynamics of Drugs in the Central Nervous System.” Clinical pharmacokinetics vol. 57, 9 (2018): 1059-1074. doi:10.1007/s40262-018-0632-y.

[2] = Brain/plasma ratio from in vivo pharmacokinetic studies; settings: rodent, brain and plasma; in vivo pharmacokinetic studies in rodents; read-out: B/P ratio (brain/plasma ratio)
Excerpt: as §1

Chain of RIPK1 (Q13546 whole entry, species assumed): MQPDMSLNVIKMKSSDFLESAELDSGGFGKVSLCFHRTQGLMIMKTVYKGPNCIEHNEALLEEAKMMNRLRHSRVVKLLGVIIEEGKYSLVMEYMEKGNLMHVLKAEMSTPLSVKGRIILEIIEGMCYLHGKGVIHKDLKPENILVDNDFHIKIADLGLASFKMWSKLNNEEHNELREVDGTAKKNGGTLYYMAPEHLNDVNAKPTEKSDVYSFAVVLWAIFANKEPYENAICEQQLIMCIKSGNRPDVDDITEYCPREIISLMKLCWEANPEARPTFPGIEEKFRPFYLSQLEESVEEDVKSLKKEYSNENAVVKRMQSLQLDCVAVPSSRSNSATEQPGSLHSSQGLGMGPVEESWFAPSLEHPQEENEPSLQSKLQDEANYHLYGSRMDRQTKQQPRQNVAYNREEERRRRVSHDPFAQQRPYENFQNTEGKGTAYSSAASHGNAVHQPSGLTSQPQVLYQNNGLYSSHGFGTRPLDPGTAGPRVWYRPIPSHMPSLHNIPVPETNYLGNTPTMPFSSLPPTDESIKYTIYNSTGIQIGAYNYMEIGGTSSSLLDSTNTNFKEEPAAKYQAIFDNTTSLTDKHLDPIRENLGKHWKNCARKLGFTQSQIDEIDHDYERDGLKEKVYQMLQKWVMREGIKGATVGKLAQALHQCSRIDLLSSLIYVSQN

Row | SMILES | RIP1K inhibitory activity (RIPK1) | fraction unbound [1] | Kp [2]
1 | CN1C(=O)[C@@H](NC(=O)c2cc(Oc3ccccc3)ccn2)COc2cc(Br)cnc21 [Compound I-6, (S)—N-(8-Bromo-5-methyl-4-oxo-2,3,4,5-tetrahydropyrido[3,2-b][1,4]oxazepin-3-yl)-4-phenoxypicolinamide] | exhibiting RIP1K inhibitory activity |  | 
2 | CN1C(=O)[C@@H](NC(=O)c2cc(Oc3ccccc3)ccn2)COc2ccc(C#CC(C)(C)O)nc21 [Compound I-18, (S)—N-(7-(3-hydroxy-3-methylbut-1-yn-1-yl)-5-methyl-4-oxo-2,3,4,5-tetrahydropyrido[3,2b][1,4]oxazepin-3-yl)-4-phenoxypicolinamide] |  | 0.027 | 
3 | CN1C(=O)[C@@H](NC(=O)c2cc(Oc3cccc(F)c3)ccn2)COc2ccc(C#CC(C)(C)O)nc21 [Compound I-21, (S)-4-(3-fluorophenoxy)-N-(7-(3-hydroxy-3-methylbut-1-yn-1-yl)-5-methyl-4-oxo-2,3,4,5-tetrahydropyrido[3,2-b][1,4]oxazepin-3-yl)picolinamide] |  | 0.0219 | 
4 | CN1C(=O)[C@@H](NC(=O)c2cc(Oc3ccccc3)ccn2)COc2ccc(C#CC(O)C(F)(F)F)nc21 (stereo partly drawn) [Compound I-33, N-((3S)-5-methyl-4-oxo-7-(4,4,4-trifluoro-3-hydroxybut-1-yn-1-yl)-2,3,4,5-tetrahydropyrido[3,2-b][1,4]oxazepin-3-yl)-4-phenoxypicolinamide] |  | 0.0057 | 
5 | CN1C(=O)[C@@H](NC(=O)c2cc(Oc3ccccc3)ccn2)COc2ccc(C#CC3COC3)nc21 [Compound I-44, (S)—N-(5-methyl-7-(oxetan-3-ylethynyl)-4-oxo-2,3,4,5-tetrahydropyrido[3,2-b][1,4]oxazepin-3-yl)-4-phenoxypicolinamide] |  | 0.017 | 1.6
6 | CN1C(=O)[C@@H](NC(=O)c2cc(Oc3ccccc3)ccn2)COc2ccc(C#CC(C)(N)C(F)(F)F)nc21 (stereo partly drawn) [Compound I-46, N-((3S)-7-(3-Amino-4,4,4-trifluoro-3-methylbut-1-yn-1-yl)-5-methyl-4-oxo-2,3,4,5-tetrahydropyrido[3,2-b][1,4]oxazepin-3-yl)-4-phenoxypicolinamide] |  | 0.0089 | 
7 | CN1C(=O)[C@@H](NC(=O)c2cc(Oc3ccccc3)ccn2)CCc2ccc(C#CC(C)(O)C(F)(F)F)nc21 (stereo partly drawn) [Compound I-56, N-((7S)-9-Methyl-8-oxo-2-(4,4,4-trifluoro-3-hydroxy-3-methylbut-1-yn-1-yl)-6,7,8,9-tetrahydro-5H-pyrido[2,3-b]azepin-7-yl)-4-phenoxypicolinamide] |  | 0.0093 | 
8 | CN1C(=O)[C@@H](NC(=O)c2cc(Oc3ccccc3)ccn2)CCc2ccc(C#CC3COC3)nc21 [Compound I-58, (S)—N-(9-Methyl-2-(oxetan-3-ylethynyl)-8-oxo-6,7,8,9-tetrahydro-5H-pyrido[2,3-b]azepin-7-yl)-4-phenoxypicolinamide] |  | 0.0184 | 0.44
